From the NIST ThermoML archive (doi:10.1021/je100912t)
Numbers after ± are expanded uncertainties.

Experiments:
[1] = Liquid; for mass density: 298.15 K, 101.33 kPa, Pycnometric method; for vapor or sublimation pressure: Ebulliometric method (Recirculating still)
[2] = refractive index (Na D-line) (dimensionless); settings: 298.15 K; 101.33 kPa; Liquid; Standard Abbe refractometry

| Structure (SMILES) | mass density [1] [kg/m3] | vapor or sublimation pressure ([1]; 321.18 K) [kPa] | refractive index [2] | vapor or sublimation pressure ([1]; 412.91 K) [kPa] | vapor or sublimation pressure ([1]; 370.27 K) [kPa] |
| --- | --- | --- | --- | --- | --- |
| CCC=O [propanal] | 797.21 ± 0.7 | 101.33 ± 1 | 1.3634 ± 0.0004 | – | – |
| CCC(=O)O [propanoic acid] | 992.86 ± 0.88 | – | 1.3858 ± 0.0004 | 101.33 ± 1 | – |
| CCCO [propan-1-ol] | 803.62 ± 0.71 | – | 1.3856 ± 0.0004 | – | 101.33 ± 1 |
